Test results from PubChem BioAssay AID256 (DTP/NCI, 2004).
“And” between values parts separate entries of the source, which are not always exact repeats. Equal values may be shown once. Toxic doses and inconclusive results are not listed. Rule for the calls: active = survival T/C of 150% or more; inactive = T/C below 125% in these data.

Tested on: CD2F1 mice, L1210 leukemia ip, survival T/C
Test: NCI In Vivo Anticancer Drug Screen. Data for tumor model L1210 Leukemia (intraperitoneal) in CD2F1 (CDF1) mice
Settings: higher = longer survival
Method in brief: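 Activity against a transplanted murine tumor was judged by comparing the compound group with a vehicle group. The outcome in the treated animals was divided by that in the controls.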

[1] = endpoint: mean survival time, dose: 100.0 mg/kg/injection, schedule: Q04DX003 (ip), vehicle: saline
[2] = endpoint: mean survival time, dose: 100.0 mg/kg/injection, schedule: Q04DX003 (ip), vehicle: saline with Tween-80
[3] = endpoint: mean survival time, dose: 100.0 mg/kg/injection, schedule: Q04DX002 (ip), vehicle: saline with Tween-80
[4] = endpoint: mean survival time, dose: 200.0 mg/kg/injection, schedule: Q04DX002 (ip), vehicle: saline with Tween-80
[5] = endpoint: mean survival time, dose: 400.0 mg/kg/injection, schedule: Q04DX002 (ip), vehicle: saline with Tween-80
[6] = endpoint: mean survival time, dose: 100.0 mg/kg/injection, schedule: Q01DX009 (ip), vehicle: saline with Tween-80

Measured: T/C

O=C(O)CCC(C(=O)O)c1ccccc1 (configuration not stated)
inactive: endpoint: mean survival time, dose: 75.0 mg/kg/injection, schedule: Q01DX001 (ip), vehicle: saline 98 % of control | endpoint: mean survival time, dose: 150.0 mg/kg/injection, schedule: Q01DX001 (ip), vehicle: saline 101 % of control | endpoint: mean survival time, dose: 300.0 mg/kg/injection, schedule: Q01DX001 (ip), vehicle: saline 104 % of control

Cc1ccc(S(=O)(=O)N/N=C/Cc2c(C(C)C)cc(C(C)C)cc2C(C)C)cc1
inactive: endpoint: median survival time, dose: 50.0 mg/kg/injection, schedule: Q04DX002 (ip), vehicle: saline with Tween-80 100 % of control | endpoint: median survival time, dose: 100.0 mg/kg/injection, schedule: Q04DX002 (ip), vehicle: saline with Tween-80 100 % of control | endpoint: median survival time, dose: 200.0 mg/kg/injection, schedule: Q04DX002 (ip), vehicle: saline with Tween-80 110 % of control | endpoint: median survival time, dose: 400.0 mg/kg/injection, schedule: Q04DX002 (ip), vehicle: saline with Tween-80 100 % of control

CCCCC1CCC(N)CC1 (configuration not stated)
inactive: [1] 96 % of control

[Cl][Fe]([Cl])([Cl])[Cl].c1ccc(-c2cc(-c3ccccc3)[o+]c(-c3ccccc3)c2)cc1
inactive: endpoint: mean survival time, dose: 25.0 mg/kg/injection, schedule: Q04DX003 (ip), vehicle: saline with Tween-80 87 % of control | endpoint: mean survival time, dose: 50.0 mg/kg/injection, schedule: Q04DX003 (ip), vehicle: saline with Tween-80 87 % of control | [2] 86 % of control and 91 % of control

CC(=O)CCC(=O)C1SCCS1
inactive: [3] 101 % of control | [4] 97 % of control | [5] 101 % of control

Cc1ncc([N+](=O)[O-])n1CCO
inactive: endpoint: mean survival time, dose: 37.5 mg/kg/injection, schedule: Q01DX009 (ip), vehicle: Klucel (hydroxypropylcellulose) (HPC) 109 % of control | endpoint: mean survival time, dose: 37.5 mg/kg/injection, schedule: Q04DX003 (ip), vehicle: Klucel (hydroxypropylcellulose) (HPC) 98 % of control | endpoint: mean survival time, dose: 75.0 mg/kg/injection, schedule: Q01DX009 (ip), vehicle: Klucel (hydroxypropylcellulose) (HPC) 104 % of control | endpoint: mean survival time, dose: 75.0 mg/kg/injection, schedule: Q04DX003 (ip), vehicle: Klucel (hydroxypropylcellulose) (HPC) 103 % of control | endpoint: mean survival time, dose: 150.0 mg/kg/injection, schedule: Q01DX009 (ip), vehicle: Klucel (hydroxypropylcellulose) (HPC) 103 % of control | endpoint: mean survival time, dose: 150.0 mg/kg/injection, schedule: Q04DX003 (ip), vehicle: Klucel (hydroxypropylcellulose) (HPC) 104 % of control | endpoint: mean survival time, dose: 300.0 mg/kg/injection, schedule: Q01DX009 (ip), vehicle: Klucel (hydroxypropylcellulose) (HPC) 107 % of control | endpoint: mean survival time, dose: 300.0 mg/kg/injection, schedule: Q04DX003 (ip), vehicle: Klucel (hydroxypropylcellulose) (HPC) 97 % of control | endpoint: mean survival time, dose: 600.0 mg/kg/injection, schedule: Q01DX009 (ip), vehicle: Klucel (hydroxypropylcellulose) (HPC) 92 % of control | endpoint: mean survival time, dose: 600.0 mg/kg/injection, schedule: Q04DX003 (ip), vehicle: Klucel (hydroxypropylcellulose) (HPC) 98 % of control

Nc1ccc(N)c(N)n1
inactive: endpoint: mean survival time, dose: 6.25 mg/kg/injection, schedule: Q01DX009 (ip), vehicle: saline sonified 105 % of control | endpoint: mean survival time, dose: 12.5 mg/kg/injection, schedule: Q01DX009 (ip), vehicle: saline sonified 96 % of control | endpoint: mean survival time, dose: 25.0 mg/kg/injection, schedule: Q01DX009 (ip), vehicle: saline sonified 108 % of control

O=c1nc(N2CCCCC2)ccn1C1OC(CO)C(O)C1O (configuration not stated)
inactive: endpoint: median survival time, dose: 12.5 mg/kg/injection, schedule: Q01DX005 (ip), vehicle: water 98 % of control | endpoint: median survival time, dose: 25.0 mg/kg/injection, schedule: Q01DX005 (ip), vehicle: water 106 % of control | endpoint: median survival time, dose: 50.0 mg/kg/injection, schedule: Q01DX005 (ip), vehicle: water 106 % of control | endpoint: median survival time, dose: 100.0 mg/kg/injection, schedule: Q01DX005 (ip), vehicle: water 112 % of control | endpoint: median survival time, dose: 200.0 mg/kg/injection, schedule: Q01DX005 (ip), vehicle: water 104 % of control

O=[N+]([O-])c1ccc(/C=C/c2ccccc2)cc1
inactive: [6] 104 % of control | [2] 102 % of control | endpoint: mean survival time, dose: 200.0 mg/kg/injection, schedule: Q01DX009 (ip), vehicle: saline with Tween-80 100 % of control | endpoint: mean survival time, dose: 200.0 mg/kg/injection, schedule: Q04DX003 (ip), vehicle: saline with Tween-80 104 % of control | endpoint: mean survival time, dose: 400.0 mg/kg/injection, schedule: Q01DX009 (ip), vehicle: saline with Tween-80 98 % of control | endpoint: mean survival time, dose: 400.0 mg/kg/injection, schedule: Q04DX003 (ip), vehicle: saline with Tween-80 96 % of control

N#CC1C2CCC(O2)C1C(=O)Oc1ccccc1 (configuration not stated)
inactive: endpoint: mean survival time, dose: 25.0 mg/kg/injection, schedule: Q04DX002 (ip), vehicle: saline with Tween-80 103 % of control | endpoint: mean survival time, dose: 50.0 mg/kg/injection, schedule: Q04DX002 (ip), vehicle: saline with Tween-80 95 % of control | [3] 97 % of control and 110 % of control

COc1cc(-c2ccc(N)c(OC)c2)ccc1N
inactive: endpoint: mean survival time, dose: 100.0 mg/kg/injection, schedule: Q01DX001 (ip), vehicle: saline with Tween-80 100 % of control | endpoint: mean survival time, dose: 100.0 mg/kg/injection, schedule: Q01DX009 (ip), vehicle: saline 96 % of control and 100 % of control | [3] 102 % of control | [1] 97 % of control | endpoint: mean survival time, dose: 200.0 mg/kg/injection, schedule: Q01DX001 (ip), vehicle: saline with Tween-80 96 % of control | endpoint: mean survival time, dose: 200.0 mg/kg/injection, schedule: Q01DX009 (ip), vehicle: saline 100 % of control and 102 % of control | [4] 100 % of control | endpoint: mean survival time, dose: 200.0 mg/kg/injection, schedule: Q04DX003 (ip), vehicle: saline 94 % of control | endpoint: mean survival time, dose: 400.0 mg/kg/injection, schedule: Q01DX001 (ip), vehicle: saline with Tween-80 103 % of control | [5] 100 % of control | endpoint: mean survival time, dose: 400.0 mg/kg/injection, schedule: Q04DX003 (ip), vehicle: saline 103 % of control

CNc1ncnc2c1cnn2C1OC(CO)C(O)C1O (configuration not stated)
inactive: endpoint: mean survival time, dose: 12.5 mg/kg/injection, schedule: Q01DX005 (ip), vehicle: water 93 % of control | endpoint: mean survival time, dose: 25.0 mg/kg/injection, schedule: Q01DX005 (ip), vehicle: water 102 % of control | endpoint: mean survival time, dose: 50.0 mg/kg/injection, schedule: Q01DX005 (ip), vehicle: water 104 % of control

CCN(CC)CCNC1CCCCC1
inactive: endpoint: mean survival time, dose: 25.0 mg/kg/injection, schedule: Q01DX009 (ip), vehicle: saline with Tween-80 96 % of control | endpoint: mean survival time, dose: 25.0 mg/kg/injection, schedule: Q04DX003 (ip), vehicle: saline 97 % of control | endpoint: mean survival time, dose: 50.0 mg/kg/injection, schedule: Q01DX009 (ip), vehicle: saline with Tween-80 96 % of control | endpoint: mean survival time, dose: 50.0 mg/kg/injection, schedule: Q04DX003 (ip), vehicle: saline 100 % of control | [6] 96 % of control | [1] 94 % of control

CCCC(O)CNCc1ccc2c3c(cccc13)CC2 (configuration not stated)
inactive: endpoint: mean survival time, dose: 25.0 mg/kg/injection, schedule: Q01DX001 (ip), vehicle: Klucel (hydroxypropylcellulose) (HPC) 93 % of control | endpoint: mean survival time, dose: 50.0 mg/kg/injection, schedule: Q01DX001 (ip), vehicle: Klucel (hydroxypropylcellulose) (HPC) 101 % of control

CCOc1c(C#N)c2c(N)ncnc2n1C1OC(CO)C(O)C1O (configuration not stated)
inactive: endpoint: mean survival time, dose: 12.5 mg/kg/injection, schedule: Q01DX009 (ip), vehicle: distilled water + Tween-80 103 % of control | endpoint: mean survival time, dose: 25.0 mg/kg/injection, schedule: Q01DX009 (ip), vehicle: distilled water + Tween-80 112 % of control | endpoint: mean survival time, dose: 50.0 mg/kg/injection, schedule: Q01DX009 (ip), vehicle: distilled water + Tween-80 112 % of control | endpoint: mean survival time, dose: 100.0 mg/kg/injection, schedule: Q01DX009 (ip), vehicle: distilled water + Tween-80 117 % of control
